Data: ChEMBL document CHEMBL1201862, “PubChem BioAssay data set” (2004)
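These data come from cells grown in 96-well plates and exposed to compound for 48 hours at five concentrations. The concentration for 50% growth inhibition is given as GI50.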 Activity calls are given as the source filed them. No stated cut-off is given here; in the data, active = GI50 up to about 1.1 µM and inactive = higher.

Tests used:
Test in all cases: DTP human tumour cell line panel, 48 h
TK-10 = system: TK-10
SNB-19 = system: SNB-19
RXF 393 = system: RXF 393
SW-620 = system: SW-620
T47D = system: T47D
MDA-MB-231 = system: MDA-MB-231
NCI-H226 = system: NCI-H226
SNB-75 = system: SNB-75
BT-549 = system: BT-549
MOLT-4 = system: MOLT-4
SK-OV-3 = system: SK-OV-3
A498 = system: A498
DU-145 = system: DU-145
MDA-N = system: MDA-N
CAKI-1 = system: CAKI-1
786-0 = system: 786-0
EKVX = system: EKVX
Malme-3M = system: Malme-3M
A549 = system: A549
OVCAR-4 = system: OVCAR-4
HCC 2998 = system: HCC 2998
SK-MEL-28 = system: SK-MEL-28
U-251 = system: U-251
OVCAR-5 = system: OVCAR-5
Hs-578T = system: Hs-578T
HOP-62 = system: HOP-62
NCI-H522 = system: NCI-H522
IGROV-1 = system: IGROV-1
SF-268 = system: SF-268
KM12 = system: KM12
ACHN = system: ACHN
MDA-MB-435 = system: MDA-MB-435
UO-31 = system: UO-31
SF-295 = system: SF-295
COLO 205 = system: COLO 205
SN12C = system: SN12C
K562 = system: K562
UACC-257 = system: UACC-257
CCRF-CEM = system: CCRF-CEM
OVCAR-8 = system: OVCAR-8
SR = system: SR
SK-MEL-5 = system: SK-MEL-5
MCF7 = system: MCF7
PC-3 = system: PC-3
HT-29 = system: HT-29
HCT-116 = system: HCT-116
NCI-H23 = system: NCI-H23
SF-539 = system: SF-539
HL-60 = system: HL-60
HOP-92 = system: HOP-92
M14 = system: M14
OVCAR-3 = system: OVCAR-3
NCI-H460 = system: NCI-H460
UACC-62 = system: UACC-62
NCI/ADR-RES = system: NCI/ADR-RES
HCT-15 = system: HCT-15
RPMI-8226 = system: RPMI-8226
SK-MEL-2 = system: SK-MEL-2
LOX IMVI = system: LOX IMVI

Structure (SMILES): CC1(C)C2CCC1(C)C(NC(=O)CCN1CCOCC1)C2 (stereo unspecified)
- GI50 (TK-10): > 100 µM (inactive)
- GI50 (SNB-19): > 100 µM (inactive)
- GI50 (RXF 393): > 100 µM (inactive)
- GI50 (SW-620): > 100 µM (inactive)
- GI50 (T47D): > 100 µM (inactive)
- GI50 (MDA-MB-231): > 100 µM (inactive)
- GI50 (NCI-H226): > 100 µM (inactive)
- GI50 (SNB-75): > 100 µM (inactive)
- GI50 (BT-549): > 100 µM (inactive)
- GI50 (MOLT-4): > 100 µM (inactive)
- GI50 (SK-OV-3): > 100 µM (inactive)
- GI50 (A498): > 100 µM (inactive)
- GI50 (DU-145): > 100 µM (inactive)
- GI50 (MDA-N): > 100 µM (inactive)
- GI50 (CAKI-1): > 100 µM (inactive)
- GI50 (786-0): > 100 µM (inactive)
- GI50 (EKVX): > 100 µM (inactive)
- GI50 (Malme-3M): > 100 µM (inactive)
- GI50 (A549): > 100 µM (inactive)
- GI50 (OVCAR-4): > 100 µM (inactive)
- GI50 (HCC 2998): > 100 µM (inactive)
- GI50 (SK-MEL-28): > 100 µM (inactive)
- GI50 (U-251): > 100 µM (inactive)
- GI50 (OVCAR-5): > 100 µM (inactive)
- GI50 (Hs-578T): > 100 µM (inactive)
- GI50 (HOP-62): > 100 µM (inactive)
- GI50 (NCI-H522): > 100 µM (inactive)
- GI50 (IGROV-1): > 100 µM (inactive)
- GI50 (SF-268): > 100 µM (inactive)
- GI50 (KM12): > 100 µM (inactive)
- GI50 (ACHN): > 100 µM (inactive)
- GI50 (MDA-MB-435): > 100 µM (inactive)
- GI50 (UO-31): > 100 µM (inactive)
- GI50 (SF-295): > 100 µM (inactive)
- GI50 (COLO 205): > 100 µM (inactive)
- GI50 (SN12C): > 100 µM (inactive)
- GI50 (K562): > 100 µM (inactive)
- GI50 (UACC-257): > 100 µM (inactive)
- GI50 (CCRF-CEM): > 100 µM (inactive)
- GI50 (OVCAR-8): > 100 µM (inactive)
- GI50 (SR): > 100 µM (inactive)
- GI50 (SK-MEL-5): > 100 µM (inactive)
- GI50 (MCF7): > 100 µM (inactive)
- GI50 (PC-3): > 100 µM (inactive)
- GI50 (HT-29): > 100 µM (inactive)
- GI50 (HCT-116): > 100 µM (inactive)
- GI50 (NCI-H23): > 100 µM (inactive)
- GI50 (SF-539): > 100 µM (inactive)
- GI50 (HL-60): > 100 µM (inactive)
- GI50 (HOP-92): > 100 µM (inactive)
- GI50 (M14): > 100 µM (inactive)
- GI50 (OVCAR-3): > 100 µM (inactive)
- GI50 (NCI-H460): > 100 µM (inactive)
- GI50 (UACC-62): > 100 µM (inactive)

Structure (SMILES): COC(=O)[C@@]12C(=O)C(C)C(=O)[C@]1(C)C(C)=C[C@H]1[C@]3(C=O)CC[C@H](OC(C)=O)C(C)(C)[C@H]3CC[C@@]12C (stereo partly specified)
- GI50 (TK-10): > 100 µM (inactive)
- GI50 (SNB-19): > 100 µM (inactive)
- GI50 (RXF 393): > 100 µM (inactive)
- GI50 (SW-620): > 100 µM (inactive)
- GI50 (T47D): > 100 µM (inactive)
- GI50 (MDA-MB-231): > 100 µM (inactive)
- GI50 (NCI-H226): > 100 µM (inactive)
- GI50 (SNB-75): > 100 µM (inactive)
- GI50 (BT-549): > 100 µM (inactive)
- GI50 (NCI/ADR-RES): > 100 µM (inactive)
- GI50 (MOLT-4): 11.9 µM (inactive)
- GI50 (HCT-15): > 100 µM
- GI50 (RPMI-8226): 75.2 µM (inactive)
- GI50 (SK-OV-3): > 100 µM (inactive)
- GI50 (A498): > 100 µM (inactive)
- GI50 (DU-145): > 100 µM (inactive)
- GI50 (MDA-N): > 100 µM (inactive)
- GI50 (CAKI-1): 93.1 µM (inactive)
- GI50 (SK-MEL-2): > 100 µM (inactive)
- GI50 (786-0): > 100 µM (inactive)
- GI50 (EKVX): > 100 µM (inactive)
- GI50 (Malme-3M): > 100 µM (inactive)
- GI50 (A549): > 100 µM (inactive)
- GI50 (OVCAR-4): > 100 µM (inactive)
- GI50 (HCC 2998): > 100 µM (inactive)
- GI50 (SK-MEL-28): > 100 µM (inactive)
- GI50 (U-251): > 100 µM (inactive)
- GI50 (OVCAR-5): > 100 µM (inactive)
- GI50 (Hs-578T): > 100 µM (inactive)
- GI50 (HOP-62): > 100 µM (inactive)
- GI50 (NCI-H522): 51.9 µM (inactive)
- GI50 (SF-268): > 100 µM (inactive)
- GI50 (LOX IMVI): 70.6 µM (inactive)
- GI50 (KM12): > 100 µM (inactive)
- GI50 (ACHN): > 100 µM (inactive)
- GI50 (MDA-MB-435): 97.3 µM (inactive)
- GI50 (UO-31): > 100 µM (inactive)
- GI50 (SF-295): > 100 µM (inactive)
- GI50 (COLO 205): > 100 µM (inactive)
- GI50 (K562): 38.6 µM (inactive)
- GI50 (UACC-257): > 100 µM (inactive)
- GI50 (CCRF-CEM): 4.06 µM (inactive)
- GI50 (OVCAR-8): > 100 µM (inactive)
- GI50 (SR): 7.48 µM (inactive)
- GI50 (SK-MEL-5): > 100 µM (inactive)
- GI50 (PC-3): > 100 µM (inactive)
- GI50 (HT-29): > 100 µM (inactive)
- GI50 (HCT-116): > 100 µM (inactive)
- GI50 (NCI-H23): > 100 µM (inactive)
- GI50 (SF-539): > 100 µM (inactive)
- GI50 (HL-60): 17.7 µM (inactive)
- GI50 (HOP-92): > 100 µM (inactive)
- GI50 (M14): > 100 µM (inactive)
- GI50 (OVCAR-3): > 100 µM (inactive)
- GI50 (NCI-H460): > 100 µM (inactive)
- GI50 (UACC-62): > 100 µM (inactive)

Structure (SMILES): Cc1nc2cc(C(F)(F)F)ccc2[nH]c1=O
- GI50 (TK-10): > 100 µM (inactive)
- GI50 (SNB-19): > 100 µM (inactive)
- GI50 (RXF 393): > 100 µM (inactive)
- GI50 (SW-620): > 100 µM (inactive)
- GI50 (T47D): 45.5 µM (inactive)
- GI50 (MDA-MB-231): > 100 µM (inactive)
- GI50 (NCI-H226): > 100 µM (inactive)
- GI50 (SNB-75): > 100 µM (inactive)
- GI50 (BT-549): > 100 µM (inactive)
- GI50 (NCI/ADR-RES): > 100 µM (inactive)
- GI50 (MOLT-4): > 100 µM (inactive)
- GI50 (HCT-15): > 100 µM
- GI50 (RPMI-8226): > 100 µM (inactive)
- GI50 (SK-OV-3): > 100 µM (inactive)
- GI50 (A498): > 100 µM (inactive)
- GI50 (DU-145): > 100 µM (inactive)
- GI50 (MDA-N): > 100 µM (inactive)
- GI50 (CAKI-1): > 100 µM (inactive)
- GI50 (SK-MEL-2): > 100 µM (inactive)
- GI50 (786-0): > 100 µM (inactive)
- GI50 (EKVX): 7.08 µM (inactive)
- GI50 (Malme-3M): > 100 µM (inactive)
- GI50 (A549): > 100 µM (inactive)
- GI50 (OVCAR-4): > 100 µM (inactive)
- GI50 (HCC 2998): > 100 µM (inactive)
- GI50 (SK-MEL-28): > 100 µM (inactive)
- GI50 (U-251): > 100 µM (inactive)
- GI50 (OVCAR-5): > 100 µM (inactive)
- GI50 (Hs-578T): 21.9 µM (inactive)
- GI50 (HOP-62): > 100 µM (inactive)
- GI50 (SF-268): > 100 µM (inactive)
- GI50 (LOX IMVI): > 100 µM (inactive)
- GI50 (KM12): > 100 µM (inactive)
- GI50 (ACHN): > 100 µM (inactive)
- GI50 (MDA-MB-435): > 100 µM (inactive)
- GI50 (UO-31): > 100 µM (inactive)
- GI50 (SF-295): > 100 µM (inactive)
- GI50 (COLO 205): > 100 µM (inactive)
- GI50 (SN12C): > 100 µM (inactive)
- GI50 (K562): > 100 µM (inactive)
- GI50 (UACC-257): > 100 µM (inactive)
- GI50 (CCRF-CEM): > 100 µM (inactive)
- GI50 (OVCAR-8): > 100 µM (inactive)
- GI50 (SK-MEL-5): > 100 µM (inactive)
- GI50 (MCF7): > 100 µM (inactive)
- GI50 (PC-3): > 100 µM (inactive)
- GI50 (HT-29): > 100 µM (inactive)
- GI50 (HCT-116): > 100 µM (inactive)
- GI50 (NCI-H23): > 100 µM (inactive)
- GI50 (SF-539): > 100 µM (inactive)
- GI50 (HL-60): > 100 µM (inactive)
- GI50 (HOP-92): > 100 µM (inactive)
- GI50 (M14): > 100 µM (inactive)
- GI50 (OVCAR-3): > 100 µM (inactive)
- GI50 (NCI-H460): > 100 µM (inactive)
- GI50 (UACC-62): 87.7 µM (inactive)
